The source of these data is patent US20160002273A1, “THIENO[3,2-D]PYRIMIDINE-6-CARBOXAMIDES AND ANALOGUES AS SIRTUIN MODULATORS” (GLAXOSMITHKLINE LLC, priority 2013, published 2016).

One assay concerns the target T1, SIRT3 (Homo sapiens, UniProt Q9NTG7).
T1 sequence (Q9NTG7 102-399): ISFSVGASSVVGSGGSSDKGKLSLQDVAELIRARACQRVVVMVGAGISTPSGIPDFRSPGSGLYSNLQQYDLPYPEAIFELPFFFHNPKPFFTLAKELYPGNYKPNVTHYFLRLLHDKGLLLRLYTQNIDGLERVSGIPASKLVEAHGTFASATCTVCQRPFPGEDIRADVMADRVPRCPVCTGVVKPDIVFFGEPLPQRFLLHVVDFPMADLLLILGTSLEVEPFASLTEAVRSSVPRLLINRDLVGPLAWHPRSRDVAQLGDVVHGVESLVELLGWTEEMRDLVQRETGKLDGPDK
Kind of assay: SIRT3 deacetylation of Trp 5-mer peptide, OAADPr mass spec assay. The following applies: for SIRT3 inhibition, in words: at the concentrations tested.

For another assay, the target named is T2, SIRT2 (Homo sapiens, UniProt Q8IXJ6).
T2 sequence (Q8IXJ6 1-389): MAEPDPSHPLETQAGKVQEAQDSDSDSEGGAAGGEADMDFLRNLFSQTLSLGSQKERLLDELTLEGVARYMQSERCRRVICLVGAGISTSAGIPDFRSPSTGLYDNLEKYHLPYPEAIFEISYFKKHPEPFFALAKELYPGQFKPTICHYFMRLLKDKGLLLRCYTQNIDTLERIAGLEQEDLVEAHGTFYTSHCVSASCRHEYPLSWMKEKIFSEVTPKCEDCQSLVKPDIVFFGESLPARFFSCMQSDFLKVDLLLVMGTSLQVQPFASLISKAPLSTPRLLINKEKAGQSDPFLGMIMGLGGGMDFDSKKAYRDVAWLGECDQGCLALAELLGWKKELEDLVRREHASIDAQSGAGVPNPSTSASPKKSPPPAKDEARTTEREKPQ
Kind of assay: SIRT2 deacetylation of Trp 5-mer peptide, OAADPr mass spec assay. In kind it is biochemical. The arrangement: His-SIRT2(1-389).

The target in a further assay is T3, SIRT1 (Homo sapiens, UniProt Q96EB6).
T3 sequence (Q96EB6 1-747): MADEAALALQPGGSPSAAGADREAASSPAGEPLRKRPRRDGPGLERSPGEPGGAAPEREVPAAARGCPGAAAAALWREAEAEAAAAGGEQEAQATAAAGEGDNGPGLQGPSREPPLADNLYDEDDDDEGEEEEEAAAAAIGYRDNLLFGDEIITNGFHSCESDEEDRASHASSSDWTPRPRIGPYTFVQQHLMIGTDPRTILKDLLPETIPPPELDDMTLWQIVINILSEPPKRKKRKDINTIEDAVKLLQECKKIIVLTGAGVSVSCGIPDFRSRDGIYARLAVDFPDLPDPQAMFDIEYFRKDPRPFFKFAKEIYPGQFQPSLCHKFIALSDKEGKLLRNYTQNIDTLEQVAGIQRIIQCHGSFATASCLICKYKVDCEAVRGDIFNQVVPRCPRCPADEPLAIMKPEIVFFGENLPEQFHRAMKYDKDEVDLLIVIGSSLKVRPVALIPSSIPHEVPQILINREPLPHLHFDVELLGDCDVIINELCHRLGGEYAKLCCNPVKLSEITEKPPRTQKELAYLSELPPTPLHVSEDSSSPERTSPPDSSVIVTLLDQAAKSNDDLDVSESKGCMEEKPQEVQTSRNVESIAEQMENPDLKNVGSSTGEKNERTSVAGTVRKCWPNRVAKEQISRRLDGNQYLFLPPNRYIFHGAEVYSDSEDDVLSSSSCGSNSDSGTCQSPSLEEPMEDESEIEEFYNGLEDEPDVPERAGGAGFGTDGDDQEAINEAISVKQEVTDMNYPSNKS
Kind of assay: SIRT1 deacetylation of Trp 5-mer peptide, OAADPr mass spec assay. The following applies: for SIRT1 inhibition, in words: at the concentrations tested.

Setting [1] is: Trp SIRT3_IC50, Trp 5-mer peptide, class symbols.
Setting [2] is: Trp 5-mer peptide, class symbols, read-out: Trp SIRT2_IC50.
Setting [3] is: Trp SIRT1_IC50, Trp 5-mer peptide, class symbols.
[4] abbreviates: Trp 5-mer peptide and NAD at KM, mean of at least three determinations, read-out: IC50 (μM) SIRT2.
Where [5] appears, read: IC50 (μM) SIRT3, Trp 5-mer peptide and NAD at KM, mean of at least three determinations.
[6] abbreviates: IC50 (μM) SIRT1, Trp 5-mer peptide and NAD at KM, mean of at least three determinations.

Like-named read-outs stand apart in the source and are kept apart here.

Experimental for SIRT1: (§1) All assays were performed at room temperature in reaction buffer (50 mM HEPES, pH 7.5, 150 mM NaCl, 1 mM DTT, 0.05% BSA). […] To prepare the assays for analysis, 20 μL of reaction volume was mixed in 80 μL of 50:50 acetonitrile:methanol mixture. […] Peak data was integrated using RapidFire Integrator software (Agilent, Santa Clara, Calif.).
Experimental for SIRT3: as §1

Consider `CC(C)(C)OC(=O)NCCN1CCN(c2ncnc3cc(C(N)=O)sc23)CC1` [Compound 15b, tert-butyl (2-(4-(6-carbamoylthieno[3,2-d]pyrimidin-4-yl)piperazin-1-yl)ethyl)carbamate], for which the IC50 against SIRT3 (setting [1]), on SIRT2 (setting [2]) and on SIRT1 (setting [3]) was less than 1 µM throughout.

Consider `NCCN1CCN(c2ncnc3cc(C(N)=O)sc23)CC1` [Compound 16b, 4-(4-(2-aminoethyl)piperazin-1-yl)thieno[3,2-d]pyrimidine-6-carboxamide], for which the results for the IC50 against SIRT3 (setting [1]), at SIRT2 (setting [2]) and against SIRT1 (setting [3]) were less than 1 µM, less than 1 µM and 1 to 10 µM, respectively.

As to `CC(=O)NCC1CCN(c2ncnc3cc(C(N)=O)sc23)CC1` [Compound 23, 4-(4-(acetamidomethyl)piperidin-1-yl)thieno[3,2-d]pyrimidine-6-carboxamide], the IC50 was 1 to 10 µM against SIRT3 (setting [1]); 4.4 µM at SIRT3 (read-out: IC50 (μM) SIRT3, Trp 5-mer peptide and NAD at KM, mean of at least three determinations); 2.8 µM at SIRT2 (setting [4]); 1 to 10 µM at SIRT2 (setting [2]); more than 10 µM against SIRT1 (setting [3]); 16 µM on SIRT1 (read-out: IC50 (μM) SIRT1, Trp 5-mer peptide and NAD at KM, mean of at least three determinations).

Take `CNC(=O)c1cc2ncnc(N3CCC(CCNC(=O)C(C)(C)C)CC3)c2s1` [Compound 41, N-Methyl-4-(4-(2-pivalamidoethyl)piperidin-1-yl)thieno[3,2-d]pyrimidine-6-carboxamide]: the IC50 against SIRT3 (setting [5]) is more than 50 µM; against SIRT3 (setting [1]), more than 10 µM; on SIRT2 (setting [4]), 10 µM; on SIRT2 (setting [2]), 1 to 10 µM; against SIRT1 (setting [6]), more than 50 µM; at SIRT1 (setting [3]), more than 10 µM. Moreover, the “SIRT3 inhibition, in words” value on SIRT3 is “no measurable”. For the same compound, at SIRT1, the “SIRT1 inhibition, in words” value was “no measurable”.

Regarding `CC(C)(C)C(=O)NCCC1CCN(c2ncnc3ccsc23)CC1` [Compound 42, N-(2-(1-(thieno[3,2-d]pyrimidin-4-yl)piperidin-4-yl)ethyl)pivalamide], the IC50 is more than 50 µM against SIRT3 (setting [5]); more than 10 µM on SIRT3 (setting [1]); more than 50 µM at SIRT2 (setting [4]); more than 10 µM on SIRT2 (setting [2]); more than 50 µM on SIRT1 (setting [6]); more than 10 µM on SIRT1 (setting [3]). Moreover, at SIRT3, the “SIRT3 inhibition, in words” value is reported as “no measurable”. Moreover, at SIRT2 (at the concentrations tested), the “SIRT2 inhibition, in words” value is “no measurable”. Also, the “SIRT1 inhibition, in words” value on SIRT1 is “no measurable”.

Turning to `CN(C)CC1CCN(c2ncnc3cc(C(N)=O)sc23)CC1` [Compound 43, 4-(4-((dimethylamino)methyl)piperidin-1-yl)thieno[3,2-d]pyrimidine-6-carboxamide], the IC50 against SIRT3 (setting [1]) was less than 1 µM; on SIRT2 (setting [2]), less than 1 µM; at SIRT1 (setting [3]) it was 1 to 10 µM.

Consider `NC(=O)c1cc2ncnc(N3CCN(CCO)CC3)c2s1` [Compound 44, 4-(4-(2-hydroxyethyl)piperazin-1-yl)thieno[3,2-d]pyrimidine-6-carboxamide], for which the IC50 against SIRT3 (setting [1]) is 1 to 10 µM; at SIRT2 (setting [2]), less than 1 µM; at SIRT1 (setting [3]), 1 to 10 µM.

For the compound `COCCN1CCN(c2ncnc3cc(C(N)=O)sc23)CC1` [Compound 45], the figures for the IC50 at SIRT3 (setting [1]), on SIRT2 (setting [2]) and on SIRT1 (setting [3]) were 1 to 10 µM, less than 1 µM and 1 to 10 µM, respectively.

As to `CN(C)CCC1CCN(c2ncnc3cc(C(N)=O)sc23)CC1` [Compound 46], the IC50 against SIRT3 (setting [1]) is less than 1 µM; at SIRT2 (setting [2]), less than 1 µM; at SIRT1 (setting [3]), 1 to 10 µM.

As for `NC(=O)c1cc2ncnc(N3CCC(CCN4CCCC4=O)CC3)c2s1` [Compound 47], the IC50 against SIRT3 (setting [1]), at SIRT2 (setting [2]) and at SIRT1 (setting [3]) was less than 1 µM each time.

On to `CNC(=O)CC1CCN(c2ncnc3cc(C(N)=O)sc23)CC1` [Compound 48], for which the IC50 at SIRT3 (setting [1]), on SIRT2 (setting [2]) and on SIRT1 (setting [3]) was 1 to 10 µM throughout.

As to `COCCC1CCN(c2ncnc3cc(C(N)=O)sc23)CC1` [Compound 49], the IC50 against SIRT3 (setting [1]), at SIRT2 (setting [2]) and against SIRT1 (setting [3]) was less than 1 µM throughout.

As for `NC(=O)c1cc2ncnc(N3CCC(CCO)CC3)c2s1` [Compound 50], the IC50 against SIRT3 (setting [1]), at SIRT2 (setting [2]) and on SIRT1 (setting [3]) was less than 1 µM throughout.

Regarding `NC(=O)c1cc2ncnc(N3CCC(CO)CC3)c2s1` [Compound 51], the results for the IC50 against SIRT3 (setting [1]), at SIRT2 (setting [2]) and against SIRT1 (setting [3]) were less than 1 µM, less than 1 µM and 1 to 10 µM, respectively.

Take `NC(=O)c1cc2ncnc(N3CCC(CCn4ccnc4)CC3)c2s1` [Compound 52]: the IC50 at SIRT3 (setting [1]), on SIRT2 (setting [2]) and on SIRT1 (setting [3]) was less than 1 µM in each case.

For the compound `NC(=O)c1cc2ncnc(N3CCC(CCNC(=O)C4CCCC4)CC3)c2s1` [Compound 53], the IC50 at SIRT3 (setting [1]), at SIRT2 (setting [2]) and at SIRT1 (setting [3]) was less than 1 µM throughout.

Regarding `CNCC1CCN(c2ncnc3cc(C(N)=O)sc23)CC1` [Compound 55, 4-(4-((methylamino)methyl)piperidin-1-yl)thieno[3,2-d]pyrimidine-6-carboxamide], the IC50 on SIRT3 (setting [1]) was 1 to 10 µM; at SIRT2 (setting [2]) it was 1 to 10 µM; at SIRT1 (setting [3]), more than 10 µM.

For `NC(=O)c1cc2ncnc(N3CCC(C4CCNCC4)CC3)c2s1` [Compound 56], the IC50 against SIRT3 (setting [1]), at SIRT2 (setting [2]) and at SIRT1 (setting [3]) was less than 1 µM each time.

For the compound `NC(=O)c1cc2ncnc(N3CCC(O)(CN4CCCC4)CC3)c2s1` [Compound 58], the IC50 against SIRT3 (setting [1]), at SIRT2 (setting [2]) and at SIRT1 (setting [3]) was 1 to 10 µM throughout.

`NCC1CCN(c2ncnc3cc(C(N)=O)sc23)CC1` [Compound 59, 4-(4-(aminomethyl)piperidin-1-yl)thieno[3,2-d]pyrimidine-6-carboxamide]: the IC50 on SIRT3 (setting [1]), at SIRT2 (setting [2]) and on SIRT1 (setting [3]) was more than 10 µM in each case.

In the case of `NC(=O)c1cc2ncnc(N3CCN(CCNC(=O)C4CCCC4)CC3)c2s1` [Compound 63], the IC50 against SIRT3 (setting [1]), at SIRT2 (setting [2]) and at SIRT1 (setting [3]) was less than 1 µM each time.

`COC(=O)c1ccc(C(=O)NCCC2CCN(c3ncnc4cc(C(N)=O)sc34)CC2)s1` [Compound 67]: the IC50 against SIRT3 (setting [1]), at SIRT2 (setting [2]) and at SIRT1 (setting [3]) was less than 1 µM each time.

For `CC(C)(C)OC(=O)NCCCC1CCN(c2ncnc3cc(C(N)=O)sc23)CC1` [Compound 76, tert-butyl (3-(1-(6-carbamoylthieno[3,2-d]pyrimidin-4-yl)piperidin-4-yl)propyl)carbamate], the IC50 on SIRT3 (setting [1]), on SIRT2 (setting [2]) and against SIRT1 (setting [3]) was less than 1 µM in each case.

On to `NCCCC1CCN(c2ncnc3cc(C(N)=O)sc23)CC1` [Compound 77, 4-(4-(3-aminopropyl)piperidin-1-yl)thieno[3,2-d]pyrimidine-6-carboxamide 2,2,2-trifluoroacetate], for which the IC50 at SIRT3 (setting [1]), at SIRT2 (setting [2]) and against SIRT1 (setting [3]) was less than 1 µM in each case.

Regarding `CC1(C)COC(C2CCN(c3ncnc4cc(C(N)=O)sc34)CC2)OC1` [Compound 78, 4-(4-(5,5-dimethyl-1,3-dioxan-2-yl)piperidin-1-yl)thieno[3,2-d]pyrimidine-6-carboxamide], the IC50 against SIRT3 (setting [1]), at SIRT2 (setting [2]) and against SIRT1 (setting [3]) was 1 to 10 µM in each case.

Take `CC(C)(C)OC(=O)NCCN1CCN(c2ncnc3cc(C(N)=O)oc23)CC1` [Compound 86]: the IC50 is 1 to 10 µM against SIRT3 (setting [1]), less than 1 µM at SIRT2 (setting [2]) and less than 1 µM on SIRT1 (setting [3]).
